Read-outs that look alike come from different tables or passages of the source.
Legend:
KRAS (WT)::SOS1 = KRAS (WT)::SOS1 (Homo sapiens (Human), UniProt P01116, C118S); experiment: KRAS::SOS1 AlphaScreen binding assay, KRAS WT
From the text: (§1) This assay can be used to examine the potency with which compounds according to the invention binding to (mutated) KRAS inhibit the protein-protein interaction between SOS1 and (mutated) KRAS e.g., KRAS WT, KRAS G12C, KRAS G12D, KRAS G12V, KRAS G13D. […] Low IC50 values in this assay setting are indicative of strong inhibition of protein-protein interaction between SOS1 and KRAS:
(§2) These assays measure the inhibitory effect of compounds on KRAS mutant protein-protein interactions using the Alpha Screen technology by Perkin Elmer.
(§3) The following (mutant) enzyme forms of KRAS and interacting proteins are used in these assays at the given concentrations: • KRAS (G12D) 1-169, N-terminal 6His-tag, C-terminal avi-tag (Xtal BioStructures, Inc.); final assay concentration 10 nM and SOS1 564-1049, N-terminal 229 GST-tag, TEV cleavage site (Viva Biotech Ltd); final assay concentration 5 nM; • KRAS (G12C) 1-169, N-terminal 6His-tag for purification, cleaved off, C-terminal avi-tag, biotinylated, mutations: C51S, C80L, C118S (in house); final assay concentration 7.5 nM and SOS1 564-1049, N-terminal 229 GST-tag, TEV cleavage site (Viva Biotech Ltd); final assay concentration 5 nM; • KRAS (G12V) 1-169, N-terminal 6His-tag for purification, cleaved off, C-terminal avi-tag, biotinylated, TEV cleavage site, mutation: C118S, GDP loaded (in house); final assay concentration 10 nM and SOS1 564-1049, N-terminal 229 GST-tag, TEV cleavage site (Viva Biotech Ltd); final assay concentration 10 nM; • KRAS (G13D) 1-169, N-terminal 6His-tag for purification, cleaved off, C-terminal avi-tag, biotinylated, TEV cleavage site, mutation: C118S, GDP loaded (in house); final assay concentration 10 nM and SOS1 564-1049, N-terminal 229 GST-tag, TEV cleavage site (Viva Biotech Ltd); final assay concentration 10 nM; • KRAS (WT) 1-169, N-terminal 6His-tag for purification, cleaved off, C-terminal avi-tag, biotinylated, TEV cleavage site, mutation: C118S, GDP loaded (in house); final assay concentration 10 nM and SOS1 564-1049, N-terminal 229 GST-tag, TEV cleavage site (Viva Biotech Ltd); final assay concentration 10 nM.
(§4) Test compounds dissolved in DMSO are dispensed onto assay plates (Proxiplate 384 PLUS, white, PerkinElmer; 6008289) using an Access Labcyte Workstation with the Labcyte Echo 55×. For the chosen highest assay concentration of 100 μM, 150 nL of compound solution are transferred from a 10 mM DMSO compound stock solution. A series of eleven fivefold dilutions per compound are transferred to the assay plate, compound dilutions are tested in duplicates. DMSO are added as backfill to a total volume of 150 nL.
(§5) The assays run on a fully automated robotic system in a darkened room below 100 Lux. To 150 nl of compound dilution 10 μl of a mix including KRAS mutant protein, SOS1 (final assay concentrations see above) and GDP nucleotide (Sigma G7127; final assay concentration 10 μM) in assay buffer (1×PBS, 0.1% BSA, 0.05% Tween 20) are added into columns 1-24.
(§6) After 30 minutes incubation time 5 μl of Alpha Screen bead mix in assay buffer are added into columns 1-23. Bead mix consists of AlphaLISA Glutathione Acceptor Beads (PerkinElmer, Cat No AL109) and AlphaScreen Streptavidin Donor Beads (PerkinElmer Cat No 6760002) in assay buffer at a final assay concentration of 10 μg/ml each.
(§7) Plates are kept at room temperature in a darkened incubator. After an additional 60 minutes incubation time the signal is measured in a PerkinElmer Envision HTS Multilabel Reader using the AlphaScreen specs from PerkinElmer.
(§8) Each plate contains up to 16 wells of a negative control depending on the dilution procedure (platewise or serial) (DMSO instead of test compound; with KRAS mutant::SOS1 GDP mix and bead mix; column 23) and 16 wells of a positive control (DMSO instead of test compound; with KRAS mutant::SOS1 GDP mix w/o bead mix; column 24).
(§9) As internal control known inhibitors of KRAS mutant::SOS1 interaction can be measured on each compound plate. […]

KRAS (G12V)::SOS1 = KRAS (G12V)::SOS1 (Homo sapiens (Human), UniProt P01116, C118S/G12V); experiment: KRAS::SOS1 AlphaScreen binding assay, KRAS G12V
From the text: as §1, §2, §3, §4, §5, §6, §7, §8, §9

MKN1 cells = experiment: MKN1 CTG proliferation assay (120 h) (gastric cancer, wt amplified); format: cell-based; conditions: Homo sapiens
Experimental: MKN1 CTG Proliferation Assay (120 h) (Gastric Cancer, Wt Amplified)
MKN1 cells (JCRB0252) are dispensed into white 384-well plates, flat and white bottom (Corning Costar, PNr.: 3570) at a density of 400 cells per well in 50 μL RPMI 1640 (PAN-Biotech, PNr.: P04-18047)+10% FCS (HyClone, PNr.: SH30084.03) (assay 1) or into white 384-well plates, flat and white bottom (Perkin Elmer, 6007680) at a density of 500 cells per well in 40 μl RPMI (Gibco, PNr.: 21875034)+10% FCS (HyClone, PNr.: SH30084.03) (assay 2) or into black 384-well plates, flat and clear bottom (Greiner, PNr. 781091) at a density of 200 cells per well in 60 μl RPMI-1640 (Gibco #A10491)+10% FCS (HyClone, PNr.: SH30084.03)+PenStrep (Gibco, PNr.15140-122) (assay 3). […] Compounds (10 mM stock in DMSO) are added at logarithmic dose series using the HP Digital Dispenser D300 (Tecan) (assay 1+2) or the ECHO acoustic liquid handler system (Beckman Coulter) (assay 3), including DMSO controls and normalizing for added DMSO. Plates are incubated for 120 h, and cell viability is measured using CellTiter-Glo luminescent cell viability reagent (Promega product code G7570). Viability (stated as percent of control) is defined as relative luminescence units RLU of each well divided by the RLU of cells in DMSO controls. IC50 values are determined from viability measurements by non-linear regression using a four-parameter model.

[1] = MKN-1, assay 3, CTG 120 h, read-out: MKN1 (assay 3) IC50

Sequence of KRAS (G12V)::SOS1 (P01116 other isoform, or with tags, fused parts or gaps G12V/C118S): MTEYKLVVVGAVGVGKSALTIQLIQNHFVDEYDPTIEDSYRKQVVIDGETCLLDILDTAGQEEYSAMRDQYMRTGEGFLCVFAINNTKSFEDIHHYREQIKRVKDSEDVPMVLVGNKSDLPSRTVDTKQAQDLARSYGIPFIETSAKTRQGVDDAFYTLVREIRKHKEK
Sequence of KRAS (WT)::SOS1 (P01116 other isoform, or with tags, fused parts or gaps C118S): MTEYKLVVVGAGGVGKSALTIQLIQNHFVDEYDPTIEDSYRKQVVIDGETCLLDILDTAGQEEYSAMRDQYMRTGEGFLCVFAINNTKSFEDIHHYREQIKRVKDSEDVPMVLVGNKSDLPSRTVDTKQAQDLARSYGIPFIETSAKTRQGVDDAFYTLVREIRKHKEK

IC50 (KRAS (WT)::SOS1) [nM]	IC50 (KRAS (G12V)::SOS1) [nM]	IC50 (MKN1 cells; MKN-1, assay 1, CTG 120 h, read-out: MKN1 (assay 1) IC50) [nM]	IC50 (MKN1 cells; [1]) [nM]	SMILES
3	2	32	51	C[C@H](Oc1cc([C@@H]2CCOC2)nc(-c2noc3c2CCC[C@@]32CCCc3sc(N)c(C#N)c32)n1)[C@@H]1CCCN1C [II-94]
4	2	–	426	C[C@H](Oc1cc(-n2cncc3ccnc2-3)nc(-c2noc3c2CCC[C@@]32CCCc3sc(N)c(C#N)c32)n1)[C@@H]1CCCN1C [II-105]
6	2	–	252	C[C@H](Oc1cc(-n2ccc(-c3ccccn3)n2)nc(-c2noc3c2CCC[C@@]32CCCc3sc(N)c(C#N)c32)n1)[C@@H]1CCCN1C [II-119]
